Tests used:
METTL3 [1] = target: T1, METTL3 (Homo sapiens, UniProt Q86U44); assay: Cellular thermal shift assay (CETSA) in MOLM-13, METTL3; type: cell-based; details: MOLM-13, 54 °C
T1 construct: METTL3–14 degradation up to 70% of the endogenous level; endogenous in cells; host or cells: MOLM-13, PC3, DU145
Method: One million of MOLM-13 cells were suspended in 100 μL of PBS (10010023, Thermo Fisher Scientific) containing 2× protease inhibitor cocktail (11697498001, Roche), for each condition tested. Cells were incubated with compounds or DMSO control (1% (v/v)) for 1 h at 37 °C. They were then heat treated at 54 °C in a thermoblock for 3 min, followed by cooling to room temperature (3 min). Next, samples were lysed by threefreeze–thaw cycles in liquid nitrogen and centrifuge at 16000 g for 30 min, 4 °C. Equal volumes of control and tested samples (12 μL) were analyzed by Western blot. The changes in the amount of METTL3 protein (after normalization for β-actin and/or GAPDH) were monitored by performing densitometry in Image Studio Lite software and analyzed in GraphPad Prism 9.

METTL3 [2] = target: T2, METTL3 (Homo sapiens, UniProt Q86U44+Q96SW2); assay: In vitro ubiquitination assay, METTL3; type: biochemical; details: 2 μM compound, 30 °C, 2 h
T2 construct: Human full-length METTL3-METTL14 was expressed and purified as described above; Human full-length cereblon-DDB1 and 6xHis-CUL4A-6xHis-RBX1 were coexpressed; StrepII (N); GFP (N); TEV site (N); made in house; host or cells: baculovirus/Sf9 insect cells (METTL3-METTL14, cereblon-DDB1, CUL4A-RBX1)
T2 sequence (Q86U44 whole entry): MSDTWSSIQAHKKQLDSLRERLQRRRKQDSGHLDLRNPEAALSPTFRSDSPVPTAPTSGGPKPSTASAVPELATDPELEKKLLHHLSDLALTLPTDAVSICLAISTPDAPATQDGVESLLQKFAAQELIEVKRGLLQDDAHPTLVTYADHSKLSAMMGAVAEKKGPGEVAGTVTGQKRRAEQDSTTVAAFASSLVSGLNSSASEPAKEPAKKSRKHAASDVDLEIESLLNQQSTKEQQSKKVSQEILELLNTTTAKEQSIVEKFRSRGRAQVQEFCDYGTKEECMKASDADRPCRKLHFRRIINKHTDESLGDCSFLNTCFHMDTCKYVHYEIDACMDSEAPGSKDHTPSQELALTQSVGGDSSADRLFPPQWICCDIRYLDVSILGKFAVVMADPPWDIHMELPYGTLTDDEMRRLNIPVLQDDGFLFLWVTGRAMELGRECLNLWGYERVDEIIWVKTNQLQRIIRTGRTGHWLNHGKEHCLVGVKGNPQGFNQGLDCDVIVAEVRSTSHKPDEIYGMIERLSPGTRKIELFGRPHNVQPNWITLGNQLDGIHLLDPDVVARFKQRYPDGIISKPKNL
T2 sequence (Q9HCE5 whole entry partner): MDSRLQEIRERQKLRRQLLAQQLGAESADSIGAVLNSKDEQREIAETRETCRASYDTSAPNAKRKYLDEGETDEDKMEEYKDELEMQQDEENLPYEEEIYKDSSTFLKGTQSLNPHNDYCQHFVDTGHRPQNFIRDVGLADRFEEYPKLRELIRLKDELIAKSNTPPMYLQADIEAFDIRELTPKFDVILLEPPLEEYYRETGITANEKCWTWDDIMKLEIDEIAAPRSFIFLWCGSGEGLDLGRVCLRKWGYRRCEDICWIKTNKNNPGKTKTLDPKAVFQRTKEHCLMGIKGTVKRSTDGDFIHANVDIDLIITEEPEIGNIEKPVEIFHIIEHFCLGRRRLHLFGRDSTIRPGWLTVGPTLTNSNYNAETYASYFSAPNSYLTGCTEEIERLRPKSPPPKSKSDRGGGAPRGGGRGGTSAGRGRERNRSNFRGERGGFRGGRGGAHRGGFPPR
T2 sequence (Q96SW2 whole entry): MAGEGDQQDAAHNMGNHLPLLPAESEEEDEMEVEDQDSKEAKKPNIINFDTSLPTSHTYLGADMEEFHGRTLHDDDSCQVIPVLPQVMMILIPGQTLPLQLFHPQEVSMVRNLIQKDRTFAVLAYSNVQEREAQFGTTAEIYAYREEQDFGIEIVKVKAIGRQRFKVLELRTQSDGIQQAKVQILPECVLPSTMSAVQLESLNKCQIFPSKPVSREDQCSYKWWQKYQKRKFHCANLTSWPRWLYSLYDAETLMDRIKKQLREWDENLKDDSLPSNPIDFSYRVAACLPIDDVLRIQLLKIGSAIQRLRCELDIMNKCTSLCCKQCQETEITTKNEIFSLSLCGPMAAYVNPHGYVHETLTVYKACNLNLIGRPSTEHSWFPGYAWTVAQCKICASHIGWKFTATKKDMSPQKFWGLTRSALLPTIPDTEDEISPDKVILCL
T2 sequence (Q16531 whole entry partner): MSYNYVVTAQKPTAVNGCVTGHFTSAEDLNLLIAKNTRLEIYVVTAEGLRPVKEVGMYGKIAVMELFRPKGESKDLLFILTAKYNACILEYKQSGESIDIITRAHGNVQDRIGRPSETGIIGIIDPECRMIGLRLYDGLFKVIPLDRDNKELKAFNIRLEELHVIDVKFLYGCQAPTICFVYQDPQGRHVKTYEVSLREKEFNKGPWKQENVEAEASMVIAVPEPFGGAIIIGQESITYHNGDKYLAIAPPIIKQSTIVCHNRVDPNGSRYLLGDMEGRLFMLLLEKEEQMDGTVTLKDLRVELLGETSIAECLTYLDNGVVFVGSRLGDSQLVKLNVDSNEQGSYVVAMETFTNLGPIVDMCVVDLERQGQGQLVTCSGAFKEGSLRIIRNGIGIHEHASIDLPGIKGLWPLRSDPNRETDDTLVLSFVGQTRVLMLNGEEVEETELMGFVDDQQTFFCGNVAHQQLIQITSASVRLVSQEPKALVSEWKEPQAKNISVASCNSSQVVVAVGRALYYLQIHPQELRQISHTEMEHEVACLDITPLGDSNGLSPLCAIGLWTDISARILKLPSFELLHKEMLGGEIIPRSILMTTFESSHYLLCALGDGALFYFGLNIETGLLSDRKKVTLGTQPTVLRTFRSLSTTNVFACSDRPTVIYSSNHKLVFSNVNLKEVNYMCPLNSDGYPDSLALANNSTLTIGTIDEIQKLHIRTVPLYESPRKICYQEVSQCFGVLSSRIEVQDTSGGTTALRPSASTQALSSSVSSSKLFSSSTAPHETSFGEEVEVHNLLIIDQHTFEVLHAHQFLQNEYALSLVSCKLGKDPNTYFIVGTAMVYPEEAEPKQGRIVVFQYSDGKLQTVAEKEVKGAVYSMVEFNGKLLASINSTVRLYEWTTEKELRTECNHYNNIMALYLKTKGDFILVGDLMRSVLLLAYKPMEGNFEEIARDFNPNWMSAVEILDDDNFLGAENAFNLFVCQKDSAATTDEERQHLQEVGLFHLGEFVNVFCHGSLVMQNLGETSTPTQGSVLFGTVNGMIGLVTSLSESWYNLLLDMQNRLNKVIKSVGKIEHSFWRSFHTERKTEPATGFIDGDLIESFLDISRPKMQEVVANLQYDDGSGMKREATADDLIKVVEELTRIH
T2 sequence (Q13619 whole entry partner): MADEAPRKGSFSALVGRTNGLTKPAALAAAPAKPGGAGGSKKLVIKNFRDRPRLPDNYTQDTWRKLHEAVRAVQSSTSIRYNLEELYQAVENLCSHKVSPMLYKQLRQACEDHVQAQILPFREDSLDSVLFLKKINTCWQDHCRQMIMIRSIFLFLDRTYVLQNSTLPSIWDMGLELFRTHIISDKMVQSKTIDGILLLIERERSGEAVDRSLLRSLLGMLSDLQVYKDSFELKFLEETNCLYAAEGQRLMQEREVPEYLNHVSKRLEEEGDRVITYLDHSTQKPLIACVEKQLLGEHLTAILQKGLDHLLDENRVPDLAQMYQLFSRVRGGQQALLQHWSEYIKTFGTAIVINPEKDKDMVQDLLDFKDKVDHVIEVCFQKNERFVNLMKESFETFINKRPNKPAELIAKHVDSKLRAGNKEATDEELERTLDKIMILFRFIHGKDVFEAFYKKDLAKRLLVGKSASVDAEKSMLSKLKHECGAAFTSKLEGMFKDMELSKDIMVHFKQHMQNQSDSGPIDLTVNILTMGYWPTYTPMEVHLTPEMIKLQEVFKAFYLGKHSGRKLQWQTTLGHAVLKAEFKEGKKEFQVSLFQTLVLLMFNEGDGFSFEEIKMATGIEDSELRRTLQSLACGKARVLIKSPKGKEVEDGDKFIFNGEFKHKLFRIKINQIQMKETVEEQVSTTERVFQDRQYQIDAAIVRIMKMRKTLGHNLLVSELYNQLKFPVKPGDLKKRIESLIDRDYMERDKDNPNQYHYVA
T2 sequence (P62877 whole entry partner): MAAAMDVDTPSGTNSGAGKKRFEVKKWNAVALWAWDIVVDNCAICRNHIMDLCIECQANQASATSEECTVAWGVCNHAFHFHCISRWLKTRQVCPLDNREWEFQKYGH
Method: (§1) For the cell-free in vitro ubiquitination of METTL3-METTL14 purified E1, E2, ubiquitin, CUL4A-RBX1, Cereblon-DDB1, and METTL3-METTL14 were used. Human full-length METTL3-METTL14 was expressed and purified as described above. […] Purified recombinant human UBE1 E1 (E-305–025) was purchased from R&D Systems, UbcH5a E2 (23–029) from Merck and ubiquitin (SBB-UP0013) from South Bay Bio. For the ubiquitination reaction, components were mixed to final concentrations of 0.06 μM UBE1, 1.96 μM UbcH5a, 39 μM ubiquitin, 0.33 μM CUL4A-RBX1, 0.33 μM Cereblon-DDB1, 0.5 μM METTL3-METTL14, and different concentrations of compound 14 or me-14 (0, 2, 8, or 32 μM) in reaction buffer (50 mM Tris-HCl pH 7.6, 5 mM MgCl2, 0.2 mM CaCl2, 1 mM DTT, 100 mM NaCl, 0.01% BSA, 0.01% Triton X-100). The final reaction volume was 15 μL. After the addition of 2 mM ATP (or the equal volume of water for the control without ATP), the reaction mixture was incubated for 2 h at 30 °C. […] The signals were quantified by using the Image Studio Lite software. To determine the percentage of ubiquitinated METTL3, the fraction of unmodified METTL3 was calculated by dividing the signal of the band assigned to unmodified METTL3 by the signal of the area containing both the unmodified and (poly)ubiquitinated METTL3 and normalizing to the control without ATP. […]

METTL14 = assay: In vitro ubiquitination assay, METTL14; type: biochemical, human; details: 2, 8, 32 μM compound, 30 °C, 2 h
Method: as §1

[3] = system: m6A/A levels in polyadenylated RNA; assay: UPLC-MS/MS quantification of m6A/A in polyadenylated RNA in MOLM-13; type: cell-based, human; details: MOLM-13, 2 μM, 24 h
Method: UPLC-MS/MS was performed as previously described.[28]
Briefly, MOLM-13 cells were seeded into 6 well plates at a density of 1 × 10^6 cells/mL in 2 mL of complete RPMI medium. Cells were treated with the indicated concentrations of compounds or DMSO control (final concentration 0.5% (v/v)) for 24 h. Following the incubation, cells were collected by centrifugation and washed once with PBS, and total RNA was extracted using 0.5 mL of GENEzol reagent according to the manufacturer’s instructions. The final volume of 50 μL of total RNA eluate was subjected to two rounds of purification using 25 μL of Sera-Mag magnetic oligo(dT) particles (Cytiva) per sample. The polyadenylated RNA was eluted with nuclease-free water in a final volume of 25 μL, and its concentration was determined using NanoDrop. One hundred nanograms of mRNA were digested to nucleosides and dephosphorylated in a one-pot reaction using 0.5 μL of nucleoside digestion mix (M0649S, NEB) in 25 μL of total reaction volume for 4 h at 37 °C. The samples were used for UPLC-MS/MS analysis without further purification steps. The data were plotted by using GraphPad Prism 9.

T1 sequence (Q86U44 2-580 limits assumed): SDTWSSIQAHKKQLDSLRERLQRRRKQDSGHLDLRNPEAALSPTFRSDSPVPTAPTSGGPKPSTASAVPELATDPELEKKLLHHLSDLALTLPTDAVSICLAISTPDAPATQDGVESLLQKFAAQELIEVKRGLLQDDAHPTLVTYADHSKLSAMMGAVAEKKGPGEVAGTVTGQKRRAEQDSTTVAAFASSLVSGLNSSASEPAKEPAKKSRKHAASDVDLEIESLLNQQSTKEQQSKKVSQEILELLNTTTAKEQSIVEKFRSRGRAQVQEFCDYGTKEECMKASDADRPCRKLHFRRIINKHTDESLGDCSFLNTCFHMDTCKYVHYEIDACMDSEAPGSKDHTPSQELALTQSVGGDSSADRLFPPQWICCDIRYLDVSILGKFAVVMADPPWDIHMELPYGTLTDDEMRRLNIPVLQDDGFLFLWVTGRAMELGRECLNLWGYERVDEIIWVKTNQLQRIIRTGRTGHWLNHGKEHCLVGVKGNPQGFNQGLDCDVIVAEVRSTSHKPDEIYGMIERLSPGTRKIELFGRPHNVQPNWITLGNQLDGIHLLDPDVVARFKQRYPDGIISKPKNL
T1 sequence (Q9HCE5 whole entry partner): as the sequence (Q9HCE5 whole entry partner) above

| Compound | stabilization of METTL3 (CETSA) (METTL3 [1]) | ubiquitination level of METTL3 (METTL3 [2]) [%] | ubiquitination of METTL14 (METTL14) | m6A/A levels [3] |
| --- | --- | --- | --- | --- |
| CC1(C)CCN(Cc2cc(F)c(N3CC(=O)NC4(CCN(c5cc(NCc6cccc(CNC(=O)CCCNc7cccc8c7C(=O)N(C7CCC(=O)NC7=O)C8=O)c6)ncn5)CC4)C3)cc2F)CC1 (stereo not shown) [Compound 14] | stabilize METTL3 in a concentration-dependent manner | ~40 | not as pronounced |  |
| CC1(C)CCN(Cc2cc(F)c(N3CC(=O)NC4(CCN(c5cc(NCC6CCN(C(=O)CCCNc7cccc8c7C(=O)N(C7CCC(=O)NC7=O)C8=O)CC6)ncn5)CC4)C3)cc2F)CC1 (stereo not shown) [Compound 22] |  |  |  | slight reduction |

From paper PMC10900215 (JACS Au, 2024)
